Laboratory results published in patent US20250018019A1, “TREATMENT OF INTERFERON DRIVEN INFLAMMATION” (The Provost, Fellows, Foundation Scholars and the other …, priority 2023, published 2025).
Counter-ions that a name gives are not always drawn.

Test system: BMDMs
Test: Proteomic analysis of BMDMs
Assay type: cell-based, mouse
Conditions: BMDMs pre-treated vs DMSO, LPS 4 h
Protocol: BMDMs (from 5 independent mice) were plated onto 10-cm dishes and treated as indicated. At the experimental endpoint, cells were washed with PBS on ice and centrifuged at 1500 rpm for 5 mins at 4° C. and frozen at -80° C. Cell pellets were lysed, reduced and alkylated in 50 μl of 6M Gu-HCl, 200 mM Tris-HCl PH 8.5, 10 mM TCEP, 15 mM Chloroacetamide by probe sonication and heating to 95° C. for 5 min. Protein concentration was measured by a Bradford assay and initially digested with LysC (Wako) with an enzyme to substrate ratio of 1/200 for 4 h at 37° C. Subsequently, the samples were diluted tenfold with water and digested with porcine trypsin (Promega) at 37° C. overnight. Samples were acidified to 1% TFA, cleared by centrifugation (16,000 g at RT) and approximately 20 μg of the sample was desalted using a Stage-tip. Eluted peptides were lyophilized, resuspended in 0.1% TFA/water and the peptide concentration was measured by A280 on a nanodrop instrument (Thermo). The sample was diluted to 2 μg/5 μl for subsequent analysis. The tryptic peptides were analysed on a Fusion Lumos mass spectrometer connected to an Ultimate Ultra3000 chromatography system (both Thermo Scientific) incorporating an autosampler. 2 μg of de-salted peptides were loaded onto a 50 cm emitter packed with 1.9 μm ReproSil-Pur 200 C18-AQ (Dr Maisch, Germany) using a RSLC-nano uHPLC systems connected to a Fusion Lumos mass spectrometer (both Thermo, UK). Peptides were separated by a 140 min linear gradient from 5% to 30% acetonitrile, 0.5% acetic acid. […] Raw files were analysed and quantified by searching against the Uniprot Mus Musculus database using DIA-NN 1.8 (https://github.com/[…]). […] Data were expressed as mean±standard error of the mean (SEM) unless stated otherwise. […] The proteomics cut-offs for analysis were a log2FC of 0.5 and a false discovery rate (FDR)<0.05, determined using t statistics. […] Overrepresentation analysis (ORA) of significant changes were assessed using Enrichr^4 and the Bioconductor package clusterProfiler 4.0 in R (version 3.6.1). […]

SMILES | GDF15 protein (proteomics) | SLC25A39 protein (proteomics)
COC(=O)/C=C/C(=O)OC [DMF, dimethyl fumarate] | one of the most significantly increased proteins | –
CCOC(=O)[C@@]12CCCC=C1N(Cc1ccc(-c3ccccc3)cc1)C(=O)[C@H]2CC(=O)NC [FHIN1, Fumarate hydratase-IN-1] | one of the most significantly increased proteins | increased
